Results taken from patent EP3643303A1, “COMPOUNDS FOR USE IN THE TREATMENT OR PREVENTION OF FIBROTIC DISEASES; PHARMACEUTICAL, COSMETIC COMPOSITIONS AND USES THEREOF” (InnovativeHealth Group SL, priority 2018, dated 2020).

Columns and labels:
[1] = test system: CB1; conditions: Bisogno et al. 2001; cited from earlier work
[2] = biological target: CB2 (Homo sapiens, UniProt P34972); conditions: Bisogno et al. 2001; cited from earlier work
[3] = test system: mouse seizure model; conditions: Leite et al. 1982; cited from earlier work
[4] = test system: Il13, IL1β, IL6, CCL2, TGFβ and IL4; experiment: Real-time quantitative PCR of inflammatory and fibrotic cytokines in skin of BLM mice; assay type: in vivo; conditions: mRNA, 2^-ΔΔCt, Figure 11
Description: Total RNA was isolated from mice frozen skin tissue using QIAzol lysis reagent (Qiagen, Hilden, Germany) and purified with RNeasy mini kit (Qiagen). Total RNA (1 µg) was retrotranscribed using the iScript™ cDNA Synthesis Kit (Bio-Rad), and the cDNA generated was analysed by real-time PCR using the iQTM SYBR Green Supermix (Bio-Rad) using a CFX96 Real-Time PCR Detection System (Bio-Rad). […] The GAPDH housekeeping gene was used to standardize the mRNA expression levels in every sample. Expression levels were calculated using the 2^-ΔΔCt method. Gene expression were normalized to GADPH mRNA levels in each sample and expressed using the 2^-ΔΔCt method. Table 1. List of mouse primer sequences used in quantitative Polymerase Chain Reaction

[5] = biological target: TRPV-1 (Homo sapiens, UniProt Q8NER1); experiment: Capsaicin-induced intracellular calcium mobilization (Fura-2) in HEK-293T-TRPV1 cells; assay type: cell-based; design: expressed in transfected cells; host or cells: HEK-293T; conditions: capsaicin 1 µM; Fura-2 AM; Figure 2A
TRPV-1, sequence (Q8NER1 whole entry): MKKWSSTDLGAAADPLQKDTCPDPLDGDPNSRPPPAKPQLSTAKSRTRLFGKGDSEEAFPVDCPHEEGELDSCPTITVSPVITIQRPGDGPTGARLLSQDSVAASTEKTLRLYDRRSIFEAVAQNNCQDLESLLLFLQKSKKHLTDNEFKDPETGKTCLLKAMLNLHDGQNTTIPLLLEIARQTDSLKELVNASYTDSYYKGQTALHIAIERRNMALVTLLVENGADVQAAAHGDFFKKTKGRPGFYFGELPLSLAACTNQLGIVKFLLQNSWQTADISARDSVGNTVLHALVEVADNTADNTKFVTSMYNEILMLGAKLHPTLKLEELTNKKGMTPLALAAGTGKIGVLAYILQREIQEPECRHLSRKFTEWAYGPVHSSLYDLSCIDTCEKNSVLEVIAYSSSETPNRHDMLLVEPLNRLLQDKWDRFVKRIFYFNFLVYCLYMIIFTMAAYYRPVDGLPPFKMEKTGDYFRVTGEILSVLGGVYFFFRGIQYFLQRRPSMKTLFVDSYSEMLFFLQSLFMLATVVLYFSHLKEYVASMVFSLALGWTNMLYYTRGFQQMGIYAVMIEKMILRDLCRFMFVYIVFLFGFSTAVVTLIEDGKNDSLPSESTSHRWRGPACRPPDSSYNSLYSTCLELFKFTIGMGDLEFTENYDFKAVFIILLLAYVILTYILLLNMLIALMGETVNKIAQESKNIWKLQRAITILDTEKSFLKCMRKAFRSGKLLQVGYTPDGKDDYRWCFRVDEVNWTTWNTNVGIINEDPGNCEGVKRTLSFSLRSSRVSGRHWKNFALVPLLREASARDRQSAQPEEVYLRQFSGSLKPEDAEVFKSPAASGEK
Description: Next, the effect of (+)CBD and (-)CBD on TRPV-1 activity was investigated. TRPV-1 is an ionotropic receptor that upon activation by a specific agonist such as capsaicin mobilize intracellular calcium in TRPV-1 expressing cells. Moreover, TRPV-1-induced calcium exerts cytotoxicity in non-neuronal cells overexpressing this receptor. To explore the effect of (+)CBD on calcium mobilization HEK-293T-TRPV1 cells were cultured in 96-well plates (10^3 cells/well) and loaded with Fura 2 acetyoxymethyl ester (Fura-2 AM; 8 µM) (Molecular Probes, Carlsbad, CA) in Dulbecco's modified Eagle's medium (containing 110 mg/l pyruvate) supplemented with 10% FBS and incubated (40 min, 37°C, 5% CO2). The cells were preincubated with (+)CBD and after 15 sec treated with capsaicin (1µM). Changes in intracellular free calcium concentration (intracellular [Ca^2+]free) were measured by digital microscopy equipped with ratiometric recording of single cells. (BD Pathway 855 Bioimager). The field of cells was monitored by sequential dual excitation, 352 and 380 nm, and the analysis of the image ratios used methods described previously to calculate changes in intracellular [Ca^2+]free. The ratio images were acquired every 6 s. At the end of experiments, the cells were exposed to ionomycin (30 s, 1 µM) to obtain a maximal response.

CB2, sequence (P34972 whole entry, species assumed): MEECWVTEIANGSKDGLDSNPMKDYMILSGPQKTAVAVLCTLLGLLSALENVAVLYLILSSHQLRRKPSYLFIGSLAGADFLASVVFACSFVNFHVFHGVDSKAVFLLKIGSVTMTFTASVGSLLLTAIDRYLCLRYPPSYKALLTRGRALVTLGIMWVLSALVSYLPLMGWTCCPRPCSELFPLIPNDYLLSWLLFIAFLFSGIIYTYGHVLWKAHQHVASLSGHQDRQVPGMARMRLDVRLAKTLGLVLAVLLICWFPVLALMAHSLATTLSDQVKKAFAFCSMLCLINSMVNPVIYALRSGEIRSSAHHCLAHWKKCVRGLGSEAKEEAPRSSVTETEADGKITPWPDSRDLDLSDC

| Structure (SMILES) | affinity at CB1 receptors [1] | affinity at CB2 receptors [2] | anticonvulsant activity [3] | expression levels of CCL2 in the skin [4] | expression levels of IL1β in the skin [4] | expression levels of IL4 in the skin [4] | expression levels of IL6 in the skin [4] | expression levels of Il13 in the skin [4] | expression levels of TGFβ in the skin [4] | capsaicin-induced calcium mobilization [5] |
| --- | --- | --- | --- | --- | --- | --- | --- | --- | --- | --- |
| C=C(C)[C@H]1CCC(C)=C[C@@H]1c1c(O)cc(CCCCC)cc1O [(+)CBD, (+)Cannabidiol] | has been shown to have affinity | has been shown to have affinity | more active than the (-)CBD isomer | – | – | – | – | – | – | – |
| C=C(C)[C@@H]1CCC(C)=C[C@H]1c1c(O)cc(CCCCC)cc1O [(-)CBD, 2-[(1R,6R)-3-methyl-6-prop-1-en-2-ylcyclohex-2-en-1-yl]-5-pentylbenzene-1,3-diol] | – | – | – | significantly reduced | significantly reduced | significantly reduced | significantly reduced | significantly reduced | significantly reduced | prevent capsaicin-induced calcium mobilization |
